{"source": "paper PMC5622107", "about": "“Small molecule inhibition of cGAS reduces interferon expression in primary macrophages from autoimmune mice” (Nature Communications, 2017)", "key": {"m-cGAS": {"target": "T1, m-cGAS (Mus musculus, UniProt Q8C6L5)", "T1 construct": "recombinant full-length mouse cGAS in reaction buffer; His6-SUMO (N, cleaved yes); made in house; host or cells: E. coli BL21(DE3) RIL", "T1 sequence (Q8C6L5 whole entry)": "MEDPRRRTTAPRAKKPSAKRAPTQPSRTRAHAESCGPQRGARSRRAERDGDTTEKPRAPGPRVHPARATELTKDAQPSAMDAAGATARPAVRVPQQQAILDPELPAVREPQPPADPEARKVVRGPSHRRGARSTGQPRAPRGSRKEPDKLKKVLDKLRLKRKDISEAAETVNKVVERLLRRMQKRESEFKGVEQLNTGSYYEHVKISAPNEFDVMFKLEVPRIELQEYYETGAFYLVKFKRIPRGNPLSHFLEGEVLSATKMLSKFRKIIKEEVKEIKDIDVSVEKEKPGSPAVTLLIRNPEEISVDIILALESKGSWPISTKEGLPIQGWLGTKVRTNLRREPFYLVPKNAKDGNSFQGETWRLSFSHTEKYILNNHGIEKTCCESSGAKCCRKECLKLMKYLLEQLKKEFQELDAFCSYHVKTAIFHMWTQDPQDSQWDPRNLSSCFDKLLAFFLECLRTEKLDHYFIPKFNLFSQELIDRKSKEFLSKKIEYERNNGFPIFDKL", "assay": "Kinetics of m-cGAS in the presence of RU.365 (RF-MS)", "type": "biochemical", "description": "Kinetics parameters of cGAMP formation were determined in the reaction mixtures carried out in 20 μl volumes in 384 small volume deep well polypropylene plates. The final concentration of m-cGAS enzyme and dsDNA were 60 nM and 300 nM, respectively. To determine if RU.365 was competitive against ATP and/or GTP, different concentrations of RU.365 ranging from 0.8 µM to 6.3 µM were tested, keeping one substrate fixed at 300 µM while varying the other one. Apparent K m ^app and apparent V max ^app values were also calculated in the presence and absence of the small molecule. RU.365 was diluted by half in DMSO for a total of four dilutions where the highest final concentration in the assay was 6.3 μM. Ten microliters of reaction buffer composed of 20 mM Tris-HCl pH 7.4, 150 mM NaCl, 5 mM MgCl2, and 0.01% Tween-20 were dispensed per well using a Thermo Multidrop Combi dispenser (Thermo Scientific). The liquid was collected at the well bottom by centrifugation for 30 s at 180×g. In all, 0.1 μl of RU.365 serially diluted in DMSO were dispensed with a Janus 384 MDT NanoHead (PerkinElmer).\nEach reaction containing a variable substrate concentration was performed in a different plate. A separate column containing different amounts of cGAMP was also included in each plate in order to construct the calibration curve and calculate the µmoles of product formed. Twenty different master mix solutions were prepared in reaction buffer supplemented with 2 mM DTT and 1.2 µM dsDNA. Of these, Ten master mix solutions were prepared with different concentrations of GTP ranging from 2.36 µM to 1.2 mM while keeping the concentration of ATP fixed at 1.2 mM and vice versa for the other 10 master mix solutions. Five microliters of these solutions with variable substrate concentration were added for each reaction. Finally, the reaction was started by adding 5 μl of 0.24 μM recombinant full-length mouse cGAS in reaction buffer supplemented with 2 mM DTT to each well of the plate followed by centrifugation for 30 s at 180×g and incubation for 120 min at room temperature. The reaction was stopped by addition of 60 μl of 0.5% (v/v) formic acid per well. The plates were centrifuged for 30 s at 180×g and sealed with a Velocity11 PlateLoc thermal plate sealer. To calculate IC50 log (inhibitor) vs. response, a variable slope non-linear fit from GraphPad Prism (7.01) was used, using three replicate experiments; error bars represent SD. The kinetics parameters were obtained fitting the curves to an allosteric sigmoidal nonlinear fit using the same software."}, "[1]": {"tested_on": "RAW KO-cGAS reporter cells", "assay": "RAW KO-cGAS reporter cells stimulated with cGAMP", "type": "cell-based, mouse", "description": "The sequence and annealing conditions of the dsDNA used is described above. Typically, 0.4 µg or 0.6 µg of dsDNA was used to stimulate RAW-Lucia ISG-KO-TREX1/ISG-KO-cGAS or RAW-Lucia ISG cells, respectively, which equated to 90% of maximal luciferase activity observed. dsDNA stimulation of RAW macrophages and subsequent luciferase measurements were performed with or without the addition of small molecules at indicated concentrations in each figure, or with DMSO as vehicle control. For the dose curve experiments, serial dilutions of inhibitors were applied to 6.7 × 10^5 cells, plated in 24-well dishes, and co-stimulated with 0.4 µg of dsDNA. In subsequent experiments using inhibitors in RAW cells, the small molecules were used at concentrations representing the derived EC75 values, while co-stimulated with one of the following: 0.4 µg dsDNA, 50 nM 5′ppp-HP20 hairpin RNA (a kind gift from Dr Anna Pyle, Yale University; sequence located in Supplementary Table 5), 10 µM cGAMP, or 100 U ml^−1 murine recombinant Ifnb (R&D Systems). dsDNA was transfected using Lipofectamine LTX. 5′ppp-HP20 RNA was transfected using Lipofectamine 2000. Cells were harvested 24 h post-transfection, washed with PBS, and lysed in 1× Luciferase Cell Lysis Buffer (Pierce)."}, "[2]": {"tested_on": "BMDM cells from Trex1 −/− mice", "assay": "IFNB1 expression by qRT-PCR in BMDMs from Trex1 −/− mice", "type": "cell-based, mouse", "details": "24 h treatment at IC50, qRT-PCR", "excerpt": "C57BL/6 wild type and Trex1 ^−/− offspring from Trex1 ^+/− crosses (a kind gift from Dr Dan Stetson, University of Washington) were harvested at 6–8 weeks of age. Femurs and tibias were removed from age- and sex-matched mice. The ends were clipped and marrow pushed from bones via syringe. Clumps were broken apart via pipetting, rinsed, and pelleted in PBS, passed through a cell strainer, and plated in seven 100 mm petri dishes per mouse. Cells were matured in media described under the methods for cell lines with an additional 10 ng ml^−1 M-CSF (for a total of 20 ng ml^−1 M-CSF during the maturation period). On Day 7, cells were counted and re-plated at 5 × 10^5 cells ml^−1 in 100 mm petri dishes. BMDMs were maintained by adding an equal volume of media to each dish every 2 days after harvesting and performing a complete media change every 4 days after harvesting. IACUC protocols for humane termination of mice for Vanderbilt University were strictly followed.\nBMDMs were incubated in the presence of DMSO or the various inhibitors, then harvested 24 h later. RNA was extracted using Trizol and chloroform. […] Real-time PCR against murine Actb1 and IFNB1 (see Supplementary Table 5 for primer sequences used) was carried out and the data was analyzed as previously described in the method section for cytokine analysis in RAW macrophages."}, "[3]": {"details": "varying ATP, GTP fixed, RU.365 0.8 µM"}, "[4]": {"details": "varying ATP, GTP fixed, RU.365 1.6 µM"}, "[5]": {"details": "varying ATP, GTP fixed, RU.365 3.2 µM"}, "[6]": {"details": "varying ATP, GTP fixed, RU.365 6.3 µM"}, "[7]": {"details": "varying GTP, ATP fixed, RU.365 0.8 µM"}, "[8]": {"details": "varying GTP, ATP fixed, RU.365 1.6 µM"}, "[9]": {"details": "varying GTP, ATP fixed, RU.365 3.2 µM"}, "[10]": {"details": "varying GTP, ATP fixed, RU.365 6.3 µM"}}}
{"smiles": "Cc1nn(-c2nc3ccccc3[nH]2)c(O)c1C1OC(=O)c2ccccc21", "note": "(stereo not shown) [RU166365]", "values": [{"measurement": "mechanism of inhibition against ATP or GTP", "setting": "m-cGAS", "result": "non-competitive inhibitor"}, {"measurement": "Kmapp", "setting": "m-cGAS; [3]", "result": 109.1, "unit": "µM"}, {"measurement": "kcat", "setting": "m-cGAS; [3]", "result": 17, "unit": "min⁻¹"}, {"measurement": "Kmapp", "setting": "m-cGAS; [4]", "result": 115.5, "unit": "µM"}, {"measurement": "kcat", "setting": "m-cGAS; [4]", "result": 14, "unit": "min⁻¹"}, {"measurement": "Kmapp", "setting": "m-cGAS; [5]", "result": 113.4, "unit": "µM"}, {"measurement": "kcat", "setting": "m-cGAS; [5]", "result": 9.1, "unit": "min⁻¹"}, {"measurement": "Kmapp", "setting": "m-cGAS; [6]", "result": 107.3, "unit": "µM"}, {"measurement": "kcat", "setting": "m-cGAS; [6]", "result": 4.3, "unit": "min⁻¹"}, {"measurement": "Kmapp", "setting": "m-cGAS; [7]", "result": 77.8, "unit": "µM"}, {"measurement": "kcat", "setting": "m-cGAS; [7]", "result": 17, "unit": "min⁻¹"}, {"measurement": "Kmapp", "setting": "m-cGAS; [8]", "result": 89.7, "unit": "µM"}, {"measurement": "kcat", "setting": "m-cGAS; [8]", "result": 14, "unit": "min⁻¹"}, {"measurement": "Kmapp", "setting": "m-cGAS; [9]", "result": 79.7, "unit": "µM"}, {"measurement": "kcat", "setting": "m-cGAS; [9]", "result": 9.1, "unit": "min⁻¹"}, {"measurement": "Kmapp", "setting": "m-cGAS; [10]", "result": 89.4, "unit": "µM"}, {"measurement": "kcat", "setting": "m-cGAS; [10]", "result": 4.3, "unit": "min⁻¹"}]}
{"smiles": "Cc1nn(-c2nc3ccc(Cl)c(Cl)c3[nH]2)c(O)c1C1OC(=O)c2ccccc21", "note": "(stereo not shown) [RU320521, 3-[1-(6,7-dichloro-1H-benzimidazol-2-yl)-5-hydroxy-3-methyl-pyrazol-4-yl]-3H-isobenzofuran-1-one]", "values": [{"measurement": "inhibition of reporter activity", "setting": "[1]", "result": "did not show any significant inhibition of reporter activity"}, {"measurement": "IFNB1 expression", "setting": "[2]", "result": "reduced IFNB1 expression"}]}
